{
  "source": "patent US20040101834A1",
  "about": "“Method of and kit for assessing responsiveness of cancer patients to antifolate chemotherapy” (priority 2001, published 2004)",
  "key": {"[1]": {"system": "GW70/LF cells", "experiment": "Antifolate growth inhibition, 72 h drug exposure", "assay_type": "cell-based", "description": "The GW70 subline was established by stepwise exposure of parental CEM cells to gradually increasing concentrations of the potent thymidylate synthase inhibitor, GW1843U89 in normal growth medium; this selection was initiated at 1.5 nM and terminated at 70 nM GW1843U89, the cells were therefore termed GW70. GW70/LF cells were established by gradual deprivation of folic acid from the growth medium; this was terminated at a concentration of 5 nM folic acid."}, "[2]": {"system": "parental human CEM leukemia cells (CEM/WT)", "experiment": "Antifolate growth inhibition, 72 h drug exposure", "assay_type": "cell-based"}, "[3]": {"system": "GW70 cells (GW1843U89-resistant CEM subline)", "experiment": "Antifolate growth inhibition, 72 h drug exposure", "assay_type": "cell-based, human", "details": "for sensitivity relative to parental CEM cells: lipid-soluble antifolates"}, "[4]": {"target": "TS (Mus musculus, UniProt P07607)", "sequence (P07607 whole entry)": "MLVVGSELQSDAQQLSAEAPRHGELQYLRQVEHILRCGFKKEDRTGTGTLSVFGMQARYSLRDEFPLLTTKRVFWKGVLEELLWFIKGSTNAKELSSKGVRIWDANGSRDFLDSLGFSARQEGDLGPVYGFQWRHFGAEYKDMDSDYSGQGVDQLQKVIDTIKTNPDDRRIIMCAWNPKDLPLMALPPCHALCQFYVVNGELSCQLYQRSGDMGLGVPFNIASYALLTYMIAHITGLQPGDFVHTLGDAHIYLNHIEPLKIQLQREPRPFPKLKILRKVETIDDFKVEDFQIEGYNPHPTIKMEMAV", "details": "Jackman, 1991; cited from earlier work"}, "[5]": {"substrate": "Nc1nc2ncc(CNc3ccc(C(=O)N[C@@H](CCC(=O)O)C(=O)O)cc3)nc2c(=O)[nH]1", "experiment": "cells, lysate or membranes", "assay_type": "cell-based, human", "details": "influx, initial (3 min) uptake rates, Lineweaver-Burk, pH 7.4, 37.0 °C"}, "[6]": {"substrate": "CN(Cc1cnc2nc(N)nc(N)c2n1)c1ccc(C(=O)N[C@@H](CCC(=O)O)C(=O)O)cc1", "experiment": "cells, lysate or membranes", "details": "other: CEM/GW70; influx, initial (3 min) uptake rates, Lineweaver-Burk; pH 7.4; 37.0 °C"}, "[7]": {"substrate": "CN(Cc1cnc2nc(N)nc(N)c2n1)c1ccc(C(=O)N[C@@H](CCC(=O)O)C(=O)O)cc1", "experiment": "cells, lysate or membranes", "assay_type": "cell-based, human", "details": "other: CEM/GW70-LF; influx, initial (3 min) uptake rates, Lineweaver-Burk; pH 7.4; 37.0 °C"}, "[8]": {"details": "Homo sapiens, 72 h, Table 10, GW70/LF"}, "[9]": {"details": "Homo sapiens, Table 10, CEM/WT, 72 h drug exposure, read-out: IC50"}},
  "note": "Like-named read-outs stand apart in the source and are kept apart here.",
  "data": [
    {"molecule": "Nc1nc(N)c2nc(CNc3ccc(C(=O)N[C@@H](CCCNC(=O)c4ccccc4C(=O)O)C(=O)O)cc3)cnc2n1", "note": "[PT523]", "values": [
      {"measurement": "IC50", "setting": "[1]; Table 10, GW70/LF, read-out: IC50", "value": "1.4 ± 0.1", "unit": "nM"},
      {"measurement": "IC50", "setting": "[2]; Table 10, CEM/WT, 72 h drug exposure, read-out: IC50", "value": "1.1 ± 0.3", "unit": "nM"},
      {"measurement": "IC50", "setting": "[3]; Table 10, GW70, 72 h drug exposure, read-out: IC50", "value": "81 ± 16", "unit": "nM"}
    ]},
    {"molecule": "COc1cc(NCc2ccc3nc(N)nc(N)c3c2C)cc(OC)c1OC", "note": "[TMQ]", "values": [
      {"measurement": "IC50", "setting": "[1]; [8]", "value": "1.1 ± 0.2", "unit": "nM"},
      {"measurement": "IC50", "setting": "[2]; [9]", "value": "7.5 ± 2.1", "unit": "nM"},
      {"measurement": "sensitivity relative to parental CEM cells", "setting": "[3]; GW70, listed as trimetraxate", "value": "hypersensitive"},
      {"measurement": "sensitivity relative to parental CEM cells", "setting": "[3]; GW70, listed as trimetrexate", "value": "collaterally more sensitive than parental CEM cells"},
      {"measurement": "IC50", "setting": "[3]; Homo sapiens, 72 h", "value": "7.2 ± 1.7", "unit": "nM"}
    ]},
    {"molecule": "Cc1nc2ccc(CN(C)c3ccc(C(=O)N[C@@H](CCC(=O)O)C(=O)O)s3)cc2c(=O)[nH]1", "note": "[ZD1694]", "values": [
      {"measurement": "IC50", "setting": "[1]; Homo sapiens, 72 h, Table 10, GW70/LF grown in the presence of 2.3 µM folic acid, read-out: IC50", "value": "389 ± 55", "unit": "nM"},
      {"measurement": "IC50", "setting": "[1]; Homo sapiens, 72 h, Table 10, GW70/LF, read-out: IC50", "value": "3.2 ± 0.5", "unit": "nM"},
      {"measurement": "IC50", "setting": "[2]; [9]", "value": "3.5 ± 0.6", "unit": "nM"},
      {"measurement": "Ki", "setting": "[4]", "value": 60, "unit": "nM"},
      {"measurement": "IC50", "setting": "[3]; Homo sapiens, 72 h", "value": "515 ± 224", "unit": "nM"}
    ]},
    {"molecule": "C#CCN(Cc1cc2c(=O)[nH]c(C)nc2cc1C)c1ccc(C(=O)N[C@@H](CCc2nnn[nH]2)C(=O)O)c(F)c1", "note": "[ZD9331]", "values": [
      {"measurement": "IC50", "setting": "[1]; [8]", "value": "25 ± 6", "unit": "nM"},
      {"measurement": "IC50", "setting": "[1]; Homo sapiens, 72 h, Table 10, GW70/LF grown in the presence of 2.3 µM folic acid", "value": "12 ± 4", "unit": "nM"},
      {"measurement": "IC50", "setting": "[2]; Homo sapiens, 72 h", "value": "16 ± 1", "unit": "nM"},
      {"measurement": "IC50", "setting": "[3]; Homo sapiens, 72 h", "value": "479 ± 67", "unit": "nM"}
    ]},
    {"molecule": "RFC in GW70 cells (Homo sapiens; E45K/H27R/S46I/V29L) (protein, endogenous in cells; host or cells: CEM-GW70 (GW1843U89-resistant CCRF-CEM subline)) MVPSSPAVEKQVPVEPGPDPELRSWRRLLCYLCFYGFMAQIRPGKIFITPYLLGPDKNFTREQVTNEITPVLSYSYLAVLVPVFLLTDYLRYTPVLLLQGLSFVSVWLLLLLGHSVAHMQLMELFYSVTMAARIAYSSYIFSLVRPARYQRVAGYSRAAVLLGVFTSSVLGQLLVTVGRVSFSTLNYISLAFLTFSVVLALFLKRPKRSLFFNRDDRGRCETSASELERMNPGPGGKLGHALRVACGDSVLARMLRELGDSLRRPQLRLWSLWWVFNSAGYYLVVYYVHILWNEVDPTTNSARVYNGAADAASTLLGAITSFAAGFVKIRWARWSKLLIAGVTATQAGLVFLLAHTRHPSSIWLCYAAFVLFRGSYQFLVPIATFQIASSLSKELCALVFGVNTFFATIVKTIITFIVSDVRGLGLPVRKQFQLYSVYFLILSIIYFLGAMLDGLRHCQRGHHPRQPPAQGLRSAAEEKAAQALSVQDKGLGGLQPAQSPPLSPEDSLGAVGPASLEQRQSDPYLAQAPAPQAAEFLSPVTTPSPCTLCSAQASGPEAADETCPQLAVHPPGVSKLGLQCLPSDGVQNVNQ", "values": [
      {"measurement": "Km", "setting": "[5]; other: CEM/GW70", "value": "16.5 ± 3.4", "unit": "µM"},
      {"measurement": "Km", "setting": "[6]", "value": "16 ± 3.9", "unit": "µM"}
    ]},
    {"molecule": "RFC in GW70/LF cells (Homo sapiens; D88H/E45K/H27R/S46I/V29L) (protein, a prominent overproduction of the native ˜80 kDa and truncated 43 kDa RFC proteins; endogenous in cells; host or cells: GW70/LF (GW70 cells adapted to low folate; 5-fold RFC gene amplification)) MVPSSPAVEKQVPVEPGPDPELRSWRRLLCYLCFYGFMAQIRPGKIFITPYLLGPDKNFTREQVTNEITPVLSYSYLAVLVPVFLLTHYLRYTPVLLLQGLSFVSVWLLLLLGHSVAHMQLMELFYSVTMAARIAYSSYIFSLVRPARYQRVAGYSRAAVLLGVFTSSVLGQLLVTVGRVSFSTLNYISLAFLTFSVVLALFLKRPKRSLFFNRDDRGRCETSASELERMNPGPGGKLGHALRVACGDSVLARMLRELGDSLRRPQLRLWSLWWVFNSAGYYLVVYYVHILWNEVDPTTNSARVYNGAADAASTLLGAITSFAAGFVKIRWARWSKLLIAGVTATQAGLVFLLAHTRHPSSIWLCYAAFVLFRGSYQFLVPIATFQIASSLSKELCALVFGVNTFFATIVKTIITFIVSDVRGLGLPVRKQFQLYSVYFLILSIIYFLGAMLDGLRHCQRGHHPRQPPAQGLRSAAEEKAAQALSVQDKGLGGLQPAQSPPLSPEDSLGAVGPASLEQRQSDPYLAQAPAPQAAEFLSPVTTPSPCTLCSAQASGPEAADETCPQLAVHPPGVSKLGLQCLPSDGVQNVNQ", "values": [
      {"measurement": "Km", "setting": "[5]; other: CEM/GW70-LF", "value": "15.5 ± 2.5", "unit": "µM"},
      {"measurement": "Km", "setting": "[7]", "value": "17.1 ± 1.2", "unit": "µM"}
    ]}
  ]
}
